Source: patent US20100190856A1, “Novel Polyhydroxylated Compounds as Fatty Acid Synthase (FASN) Inhibitors” (UNIVERSIDAD COMPLUTENSE DE MADRID, priority 2007, published 2010)
Entries after “also recorded” stand apart in the source; their conditions may differ.

Experiments:
[1] = test system: SK-Br3 breast cancer cells; assay: MTT cytotoxicity assay, SK-Br3 breast cancer cells; format: cell-based, human; conditions: Homo sapiens, SK-BR-3, 48 h, MTT, 48 h, read-out: IC50, growth inhibition, SK-Br3
Procedure: (§1) MCF-7 and MDA-MB-231 breast cancer cells were obtained from the American Type Culture Collection (ATCC) and were routinely grown in Dulbecco's modified Eagle's medium (DMEM, Gibco) containing 10% fetal bovine serum (FBS, Bio-Whittaker), 1% L-glutamine, 1% sodium pyruvate, 50 U/mL penicillin and 50 μg/mL streptomycin. SK-Br3 breast cancer cells were obtained from Eucellbank (Universidad de Barcelona, Spain) and were passaged in McCoy's 5 A medium containing 10% FBS, 1% L-glutamine, 1% sodium pyruvate, 50 U/mL penicillin and 50 μg/mL streptomycin. Non-malignant fibroblasts N-1 were obtained from Eucellbank (Universidad de Barcelona, Spain) and were passaged in DMEM medium containing 10% FBS, 1% L-glutamine, 1% sodium pyruvate, 50 U/mL penicillin and 50 μg/mL streptomycin. The cells remained free of Mycoplasma and were propagated in adherent culture according to established protocols. Cells were maintained at 37° C. in a humidified atmosphere of 95% air and 5% CO2.
(§2) Drug sensitivity was determined using a standard colorimetric MTT (3-4,5-dimethylthiazol-2-yl-2,5-diphenyltetrazolium bromide) assay. Briefly, cells were plated out at a density of 7×10^3 cells/100 μL/well in 96-well microtitre plates and allowed an overnight period for attachment. Then the medium was removed and fresh medium along with various concentrations of the tested compound were added to the cultures for a period of 48 h. Following the treatment, the cells were fed with drug-free medium (100 μL/well) and 10 μL of MTT solution (5 mg/mL; Sigma, St. Louis, Mo.), and the incubation was prolonged for 3 h at 37° C. After carefully removing the supernatants, the MTT-formazan crystals formed by metabolically viable cells were dissolved in dimethyl sulphoxide (100 μL/well) and the absorbance was measured at 570 nm in a multi-well plate reader (Model Anthos Labtec 2010 1.7 reader).

[2] = test system: MCF-7 breast cancer cells; assay: MTT cytotoxicity assay, MCF-7 breast cancer cells; format: cell-based, human; conditions: Homo sapiens, MCF7, MCF-7 cells, 48 h, read-out: IC50, growth inhibition, MCF-7
Procedure: as §1, §2

[3] = test system: Non-malignant fibroblasts N-1; assay: MTT cytotoxicity assay, non-malignant fibroblasts N-1; format: cell-based; conditions: for IC50: Fibroblast, non-malignant fibroblasts, MTT, 48 h, read-out: IC50, growth inhibition, Fibroblasts; for effects in cell death / morphology changes in non-malignant cells: up to doses three-fold their cytotoxic IC50 value in tumoral cells
Procedure: as §1, §2

[4] = test system: MDA-MB-231 breast cancer cells; assay: MTT cytotoxicity assay, MDA-MB-231 breast cancer cells; format: cell-based, human; conditions: Homo sapiens, MDA-MB-231 cells, 48 h, read-out: IC50, growth inhibition, MDA-MB-231
Procedure: as §1, §2

[5] = biological target: T1, FASN (Homo sapiens, UniProt P49327); assay: Fatty acid synthase activity assay in SK-Br3 cells (NADPH oxidation, particle-free supernatants); format: cell-based; set-up: FASN activity, % of control cells / FASN activity reduced to / reduction of FASN activity: concentration or dose not given beside the values; conditions: for inhibition of FASN activity (in words): SK-Br3 cells treated 6, 12 and 24 hours; for FASN activity reduced to: 12 h exposure
T1 construct: endogenous in cells; host or cells: SK-Br3 breast cancer cells
T1 sequence (P49327 whole entry): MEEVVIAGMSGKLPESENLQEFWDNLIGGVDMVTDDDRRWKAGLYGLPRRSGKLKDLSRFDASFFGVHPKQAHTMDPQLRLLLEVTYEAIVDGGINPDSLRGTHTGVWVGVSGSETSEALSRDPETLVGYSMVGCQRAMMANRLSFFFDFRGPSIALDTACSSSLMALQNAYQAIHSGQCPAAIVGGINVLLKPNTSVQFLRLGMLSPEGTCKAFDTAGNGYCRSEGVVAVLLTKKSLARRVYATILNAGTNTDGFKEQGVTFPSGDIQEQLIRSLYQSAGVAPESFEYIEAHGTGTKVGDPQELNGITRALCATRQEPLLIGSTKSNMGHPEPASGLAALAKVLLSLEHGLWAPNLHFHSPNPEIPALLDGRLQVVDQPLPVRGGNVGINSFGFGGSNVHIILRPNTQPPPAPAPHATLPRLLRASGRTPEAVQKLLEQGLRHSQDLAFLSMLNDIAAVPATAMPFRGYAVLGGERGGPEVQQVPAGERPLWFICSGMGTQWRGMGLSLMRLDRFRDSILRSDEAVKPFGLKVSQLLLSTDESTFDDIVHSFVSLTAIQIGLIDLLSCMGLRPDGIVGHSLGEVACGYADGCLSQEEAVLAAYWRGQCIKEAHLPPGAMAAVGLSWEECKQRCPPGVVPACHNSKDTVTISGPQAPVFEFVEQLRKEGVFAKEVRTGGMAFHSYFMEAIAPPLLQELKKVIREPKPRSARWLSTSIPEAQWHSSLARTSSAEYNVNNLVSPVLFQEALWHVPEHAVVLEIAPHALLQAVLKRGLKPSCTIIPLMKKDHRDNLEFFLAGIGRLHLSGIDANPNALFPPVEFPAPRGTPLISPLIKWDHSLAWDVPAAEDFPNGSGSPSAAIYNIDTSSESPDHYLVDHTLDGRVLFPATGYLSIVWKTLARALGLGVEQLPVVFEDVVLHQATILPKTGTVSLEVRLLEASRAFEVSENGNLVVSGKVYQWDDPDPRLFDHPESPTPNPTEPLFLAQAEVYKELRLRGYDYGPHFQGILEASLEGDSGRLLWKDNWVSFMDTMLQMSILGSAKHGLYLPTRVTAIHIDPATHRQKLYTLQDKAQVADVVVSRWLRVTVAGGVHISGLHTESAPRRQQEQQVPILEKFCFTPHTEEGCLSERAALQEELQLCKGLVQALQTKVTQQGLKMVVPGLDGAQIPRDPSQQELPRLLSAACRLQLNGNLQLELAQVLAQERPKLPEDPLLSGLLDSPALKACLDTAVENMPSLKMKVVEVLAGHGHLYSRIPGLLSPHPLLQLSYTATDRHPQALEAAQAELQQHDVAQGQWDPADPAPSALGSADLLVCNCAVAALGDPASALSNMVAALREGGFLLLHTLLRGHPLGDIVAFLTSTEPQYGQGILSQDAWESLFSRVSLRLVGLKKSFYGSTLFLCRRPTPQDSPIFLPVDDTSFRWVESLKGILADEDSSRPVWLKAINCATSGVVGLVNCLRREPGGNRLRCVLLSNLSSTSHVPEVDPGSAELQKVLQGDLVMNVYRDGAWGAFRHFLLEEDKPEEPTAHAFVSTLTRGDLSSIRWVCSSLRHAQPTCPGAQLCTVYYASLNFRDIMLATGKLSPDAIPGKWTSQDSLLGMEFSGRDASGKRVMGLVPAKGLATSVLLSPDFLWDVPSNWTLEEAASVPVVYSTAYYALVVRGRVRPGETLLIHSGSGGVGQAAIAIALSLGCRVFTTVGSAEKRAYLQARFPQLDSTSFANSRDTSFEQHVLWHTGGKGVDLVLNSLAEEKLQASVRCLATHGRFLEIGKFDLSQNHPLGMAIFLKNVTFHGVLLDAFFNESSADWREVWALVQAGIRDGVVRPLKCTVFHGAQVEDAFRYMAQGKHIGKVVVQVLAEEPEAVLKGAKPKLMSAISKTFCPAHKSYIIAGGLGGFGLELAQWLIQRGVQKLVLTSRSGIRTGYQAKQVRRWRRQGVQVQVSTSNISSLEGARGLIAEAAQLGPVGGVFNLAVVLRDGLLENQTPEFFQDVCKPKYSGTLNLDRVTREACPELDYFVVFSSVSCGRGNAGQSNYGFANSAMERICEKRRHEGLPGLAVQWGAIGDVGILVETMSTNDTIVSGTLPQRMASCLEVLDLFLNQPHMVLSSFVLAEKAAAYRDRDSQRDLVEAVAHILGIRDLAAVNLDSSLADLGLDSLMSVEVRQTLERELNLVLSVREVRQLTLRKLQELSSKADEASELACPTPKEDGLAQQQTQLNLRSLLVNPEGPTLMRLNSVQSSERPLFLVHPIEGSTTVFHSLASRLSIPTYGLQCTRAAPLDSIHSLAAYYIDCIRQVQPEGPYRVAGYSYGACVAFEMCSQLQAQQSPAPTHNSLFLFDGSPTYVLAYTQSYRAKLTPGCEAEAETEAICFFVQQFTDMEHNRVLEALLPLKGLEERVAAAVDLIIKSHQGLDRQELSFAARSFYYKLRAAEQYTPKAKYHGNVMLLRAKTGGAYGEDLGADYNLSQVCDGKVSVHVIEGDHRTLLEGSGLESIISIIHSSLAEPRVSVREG
Procedure: FASN activity of compounds a, b, e, f, h, i, k, m and q was assayed in particle-free supernatants by recording spectrophotometrically at 37° C. (Lambda Bio 20, Perkin Elmer, EUA; using UV Kinlab 2.80.02 software) the decrease of A340nm due to the oxidation of NADPH, as we previously described. After 6, 12, 24 h of exposure to the tested compound, the cells were harvested by treatment with trypsin-EDTA solution, pelleted by centrifugation, washed twice and resuspended in cold PBS. The cells were sonicated during 30 min at 4° C. (PSelecta ultrasons) and centrifuged for 15 min at 4° C. to keep supernatants particle-free. A sample was taken to measure the protein content by a BioRad assay (Bio-Rad Laboratories). One-hundred and twenty micrograms of protein were pre-incubated during 15 min at 37° C. in 0.2 M of potassium phosphate buffer, pH 7.0, for temperature equilibration. The sample was then added to the reaction mixture: 200 mM potassium phosphate buffer, pH 7.0, 1 mM EDTA (Sigma), 1 mM dithiothreitol (Sigma), 30 μM acetyl-CoA (Sigma), 0.24 mM NADPH (Sigma), in 0.3 mL reaction volume were monitored at 340 nm for 3 min to measure the background NADPH oxidation. After the addition of 50 μM of malonyl-CoA (Sigma), the reaction was assayed for additional 10 min to determine FASN-dependent oxidation of NADPH. Rates were corrected for the background rate of NADPH oxidation in the presence of acetyl-CoA. FASN activity was expressed in nmol NADPH oxidized min^−1 mg protein^−1.

In the case of `Cc1c(O)cc(C(=O)Oc2ccc(OC(=O)c3cc(O)c(C)c(O)c3)c3c2CCCC3)cc1O` [aa, 1,4-bis[(3,5-dihydroxy-4-methylbenzoyl)oxy]-5,6,7,8-tetrahydronaphthalene], the melting point is reported as 204 °C (dec.) and the IC50 [1] is reported as 49.5 ± 4.9 µM.

With `Cc1cc(OC(=O)c2cc(O)c(O)c(O)c2)ccc1OC(=O)c1cc(O)c(O)c(O)c1` [c, 2-methyl-1,4-bis[(3,4,5-trihydroxybenzoyl)oxy]benzene] the IC50 [1] was 23.3 ± 2.1 µM, the IC50 [2] was 4.5 µM and the IC50 [3] was > 100 µM. The “effects in cell death / morphology changes in non-malignant cells” value [3] was “No significant effects” and the IC50 [4] was 54.7 ± 7.6 µM.

With `COC(=O)c1cc(OC(=O)c2cc(O)c(O)c(O)c2)c2ccccc2c1OC(=O)c1cc(O)c(Br)c(O)c1` [cc, methyl 1-[(4-bromo-3,5-dihydroxybenzoyl)oxy]-4-[(3,4,5-trihydroxybenzoyl)oxy]-2-naphthoate] the IC50 [1] was 16.5 ± 4.9 µM, the IC50 [3] was 91.5 ± 2.1 µM and the “effects in cell death / morphology changes in non-malignant cells” value [3] was “No significant effects”.

In the case of `COc1cc(OC(=O)c2cc(O)c(O)c(O)c2)ccc1OC(=O)c1cc(O)c(O)c(O)c1` [d, 2-methoxy-1,4-bis[(3,4,5-trihydroxybenzoyl)oxy]benzene], the IC50 [1] is reported as 8.3 ± 1.1 µM, the IC50 [2] is reported as 30 ± 0.1 µM and the IC50 [3] is reported as > 50 µM. For the same compound, the “effects in cell death / morphology changes in non-malignant cells” value [3] was “No significant effects” and the IC50 [4] was 28 ± 1 µM.

With `COC(=O)c1cc(OC(=O)c2cc(O)c(O)c(O)c2)c2ccccc2c1OC(=O)c1cccc(O)c1` [dd, methyl 1-[(3-hydroxybenzoyl)oxy]-4-[(3,4,5-trihydroxybenzoyl)oxy]-2-naphthoate] the IC50 [1] was 15.5 ± 3.5 µM, the IC50 [3] was 39.5 ± 6.4 µM and the “effects in cell death / morphology changes in non-malignant cells” value [3] was “No significant effects”.

For `COC(=O)c1cc(OC(=O)c2cc(O)c(O)c(O)c2)c2ccccc2c1OC(=O)c1ccc(O)cc1` [ee, methyl 1-[(4-hydroxybenzoyl)oxy]-4-[(3,4,5-trihydroxybenzoyl)oxy]-2-naphthoate], the IC50 [1] was 33 ± 1.4 µM, the IC50 [3] was 67.5 ± 4.9 µM and the “effects in cell death / morphology changes in non-malignant cells” value [3] was “No significant effects”.

With `O=C(Oc1cc(OC(=O)c2cc(O)cc(O)c2)c2ccccc2c1)c1cc(O)cc(O)c1` [g, 1,3-bis[(3,5-dihydroxybenzoyl)oxy]naphthalene] the melting point was 167 to 169 °C, the IC50 [1] was 107 ± 29.7 µM and the IC50 [4] was 121 ± 5.7 µM.

For `O=C(Oc1cc(OC(=O)c2ccc(O)c(O)c2)c2ccccc2c1)c1ccc(O)c(O)c1` [h, 1,3-bis[(3,4-dihydroxybenzoyl)oxy]naphthalene], the IC50 [1] was 20.7 ± 11.5 µM, the “inhibition of FASN activity (in words)” value [5] was “inhibit FASN activity” and the “FASN activity reduced to” value ([5]; SK-Br3 cells) was 77%. For the same compound, the IC50 [3] was 105 µM, the “effects in cell death / morphology changes in non-malignant cells” value [3] was “No significant effects” and the IC50 [4] was 19 ± 1.1 µM.

For `O=C(Oc1ccc(OC(=O)c2cc(O)cc(O)c2)c2ccccc12)c1cc(O)cc(O)c1` [j, 1,4-bis[(3,5-dihydroxybenzoyl)oxy]naphthalene], the melting point was 201 to 203 °C, the IC50 [1] was 115 ± 7.1 µM and the IC50 [4] was 24 ± 0.9 µM.

In the case of `O=C(Oc1ccc(OC(=O)c2ccc(O)c(O)c2)c2ccccc12)c1ccc(O)c(O)c1` [k, 1,4-bis[(3,4-dihydroxybenzoyl)oxy]naphthalene], the IC50 [1] is reported as 37.5 ± 6.4 µM, the “inhibition of FASN activity (in words)” value [5] is reported as “inhibit FASN activity” and the “FASN activity reduced to” value ([5]; SK-Br3 cells) is reported as 44%. The IC50 [2] was 49.3 ± 10 µM, the IC50 [3] was 68 µM and the “effects in cell death / morphology changes in non-malignant cells” value [3] was “No significant effects”. For the same compound, the IC50 [4] was 27 ± 11.3 µM.

In the case of `O=C(Oc1ccc2cc(OC(=O)c3cc(O)c(O)c(O)c3)ccc2c1)c1cc(O)c(O)c(O)c1` [l, 2,6-bis[(3,4,5-trihydroxybenzoyl)oxy]naphthalene], the IC50 [1] is reported as 5.5 ± 1 µM, the IC50 [2] is reported as 13 ± 1.8 µM and the IC50 [3] is reported as > 200 µM. The “effects in cell death / morphology changes in non-malignant cells” value [3] was “No significant effects” and the IC50 [4] was 15.3 ± 1 µM.

In the case of `O=C(Oc1cccc2c(OC(=O)c3cc(O)c(O)c(O)c3)cccc12)c1cc(O)c(O)c(O)c1` [m, 1,5-bis[(3,4,5-trihydroxybenzoyl)oxy]naphthalene], the IC50 [1] is reported as 25.7 ± 3 µM, the “inhibition of FASN activity (in words)” value [5] is reported as “inhibit FASN activity; also recorded: decreased in a time-dependent manner” and the “FASN activity reduced to” value ([5]; SK-Br3 cells) is reported as 77%. For the same compound, the “FASN activity, % of control cells” value ([5]; SK-Br3 cells, 24 h exposure) was 76%, the IC50 [2] was 69 ± 14 µM and the IC50 [3] was > 150 µM. The “effects in cell death / morphology changes in non-malignant cells” value [3] was “No significant effects” and the IC50 [4] was 186 ± 10 µM.

In the case of `O=C(Oc1ccc(-c2ccc(OC(=O)c3cc(O)nc(O)c3)cc2)cc1)c1cc(O)nc(O)c1` [r, 4,4′-bis[(2,6-dihydroxyisonicotinoyl)oxy]-1,1′-biphenyl], the melting point is reported as 285 °C (dec.).

With `O=C(Oc1ccc(-c2ccc(OC(=O)c3cc(O)cc(O)c3)cc2)cc1)c1cc(O)cc(O)c1` [s, 4,4′-bis[(3,5-dihydroxybenzoyl)oxy]-1,1′-biphenyl] the IC50 [1] was 7.3 ± 2 µM, the IC50 [3] was 33 ± 3 µM and the “effects in cell death / morphology changes in non-malignant cells” value [3] was “No significant effects”. The IC50 [4] was 5.75 ± 2 µM.

In the case of `O=C(Oc1ccc(-c2ccc(OC(=O)c3ccc(O)c(O)c3)cc2)cc1)c1ccc(O)c(O)c1` [t, 4,4′-bis[(3,4-dihydroxybenzoyl)oxy]-1,1′-biphenyl], the melting point is reported as 286 °C (dec.) and the IC50 [1] is reported as 90 µM.

`O=C(Oc1ccc(-c2ccc(OC(=O)c3cc(O)c(Br)c(O)c3)cc2)cc1)c1ccc(O)c(O)c1` [u, 4′[(3,4-dihydroxybenzoyl)oxy]-1,1′-biphenyl-4-yl 4-bromo-3,5-dihydroxybenzoate] showed a melting point of 252 to 254 °C and an IC50 [1] of 31 µM.

For `COc1cc(C(=O)Oc2ccc(-c3ccc(OC(=O)c4ccc(O)c(O)c4)cc3)cc2)cc(O)c1O` [v, 4′[(3,4-dihydroxybenzoyl)oxy]-1,1′-biphenyl-4-yl 3,4-dihydroxy-5-methoxybenzoate], the melting point was 240 °C (dec.) and the IC50 [1] was < 1 µM.

In the case of `O=C(Oc1cc(OC(=O)c2cc(O)c(Br)c(O)c2)c2ccccc2c1)c1cc(O)c(Br)c(O)c1` [w, 1,3-bis[(4-bromo-3,5-dihydroxybenzoyl)oxy]naphthalene], the IC50 [1] is reported as 46.7 ± 11.7 µM, the IC50 [3] is reported as 79.5 ± 14.8 µM and the “effects in cell death / morphology changes in non-malignant cells” value [3] is reported as “No significant effects”.

In the case of `COc1cc(C(=O)Oc2cc(OC(=O)c3cc(O)c(O)c(OC)c3)c3ccccc3c2)cc(O)c1O` [x, 1,3-bis[(3,4-dihydroxy-5-methoxybenzoyl)oxy]naphthalene], the melting point is reported as 260 °C (dec.) and the IC50 [1] is reported as 3 µM.

With `O=C(Oc1cc2c(c(OC(=O)c3cc(O)c(O)c(O)c3)c1)CCCC2)c1cc(O)c(O)c(O)c1` [y, 1,3-bis[(3,4,5-trihydroxybenzoyl)oxy]-5,6,7,8-tetrahydronaphthalene] the IC50 [1] was 31 ± 3 µM, the IC50 [2] was 81 ± 16 µM and the IC50 [3] was > 150 µM. For the same compound, the “effects in cell death / morphology changes in non-malignant cells” value [3] was “No significant effects” and the IC50 [4] was 98 ± 11 µM.

For `O=C(Oc1ccc(OC(=O)c2cc(O)c(O)c(O)c2)c2c1CCCC2)c1cc(O)c(O)c(O)c1` [z, 1,4-bis[(3,4,5-trihydroxybenzoyl)oxy]-5,6,7,8-tetrahydronaphthalene], the IC50 [1] was 41 ± 3 µM, the IC50 [2] was 43 ± 10 µM and the IC50 [3] was 128 ± 32 µM. The “effects in cell death / morphology changes in non-malignant cells” value [3] was “No significant effects” and the IC50 [4] was 104 ± 10 µM.
